Results taken from PubChem BioAssay AID179 (DTP/NCI, 2004).
Activity calls are given as the source filed them.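 Rule for the calls: active = compounds giving half or more protection of infected cells from virus-caused growth loss, again on retest; inactive = the rest.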 Where a SMILES comes first, the peptide text is derived from it. The star is where a group is joined. Boc = CC(C)(C)OC(=O)*; OBn = c1ccc(CO*)cc1

Tested on: CEM cells HIV-1 protection, formazan growth assay
Assay: NCI AIDS Antiviral Assay
Settings: for IC50: measured here: growth of uninfected CEM cells
Summary of the method: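 Human CEM cells, uninfected and HIV-1-infected, received five drug concentrations, and growth was read by soluble formazan assay. Compounds giving at least 50% protection were retested; reproducible 100% protection defined confirmed active.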

| Structure (SMILES) | EC50 [µM] | IC50 [µM] | outcome |
| --- | --- | --- | --- |
| Cc1ccc(S(=O)(=O)N/N=C/c2oc(-c3ccncc3)c(-c3ccncc3)c2[N+](=O)[O-])cc1 | > 15.5 | > 15.5 |  |
| CS/C(C)=N/OC(=O)NCCCCNc1ccc(N=[N+]=[N-])cc1 | > 148 | 34.7 |  |
| COC(=O)CCC1(C)C2CCC1(C)/C(=N/O)C2 (stereo unspecified) | > 200 | > 200 |  |
| CCOc1ccc(N(CC(=O)N2CC(=O)Nc3cc(C)c(C)cc32)C(C)=O)cc1 | > 13.2 | > 13.2 |  |
| Cc1ccc2nc(Nc3ccccc3C)c(Nc3ccccc3C)nc2c1 |  |  | inactive |
| c1cc(-c2ccsc2-c2ccsc2)cs1 | > 200 | 52.5 |  |
| CC(C)CC(NC(=O)C(Cc1ccccc1)NC(=O)C(Cc1ccccc1)NC(=O)OC(C)(C)C)C(=O)OCc1ccccc1 (stereo not drawn) (Boc-Phe-Phe-Leu-OBn; configuration not given here) | > 200 | > 200 |  |
| Cc1ccccc1NC(=O)c1cc(-c2ccc([N+](=O)[O-])cc2)nc(=S)[nH]1 | > 490 | > 490 |  |
| COc1ccc(C(=O)O/N=C2\CCCC\C2=C/c2ccccc2)cc1 |  |  | inactive |
| CC(C(=O)O)c1ccc(-n2nnc3c(=O)[nH][nH]c(=O)c32)cc1 (stereo unspecified) | > 200 | > 200 |  |
| CCCCC1C(=O)N2C=C(c3ccccc3)c3ccccc3N2C1=O (stereo unspecified) | > 100 | 60.3 |  |
| CC(C)/C=N\N1C(N)=C(C#N)C(C#N)(C#N)C1C(C)C (stereo unspecified) | > 200 | 41.7 |  |
| COc1ccc(-c2cc(-c3ccccc3)c(C#N)c(=O)n2C2OC(CO)C(O)C(O)C2O)cc1 (stereo unspecified) | > 21.4 | > 21.4 |  |
| NC(Cc1ccccc1)C(=O)N[C@H]1c2ccsc2/C(=N/O)[C@H]1O (stereo partly specified) | > 200 | > 200 |  |
| CN(C)c1ccc(/C=C/c2cc[n+](C)c3ccccc23)cc1 | > 200 | 0.501 |  |
| COc1ccc(NS(=O)c2ccc(OC)cc2)cc1 (stereo unspecified) | > 200 | 15.8 |  |
| CCOC(=O)c1ccc(-c2cccs2)[nH]1 | > 200 | 38.9 |  |
| NNC1=Nc2cc3c(cc2C(=O)N2C[C@H](O)CC12)OCO3 (stereo partly specified) | > 200 | > 200 |  |
| CCOC(=O)C(=O)Nc1ccccc1OCC | > 209 | > 209 |  |
| c1ccc(C2=NCCc3cc4c(cc32)OCO4)cc1 | > 200 | 141 |  |
| O=C(O)[C@H](NS(=O)(=O)c1ccc2ccccc2c1)c1ccccc1 |  |  | inactive |
| CN(C)c1ccc(/C=C(\C#N)c2ccc(Cl)cc2Cl)cc1 | > 200 | 3.39 |  |

| Structure (SMILES) | EC50 [µM] | IC50 [µM] | outcome |
| --- | --- | --- | --- |
| COC1/C=C/OC2(C)Oc3c(C)c(O)c4c(O)c(c(/C=N/Nc5ccc([N+](=O)[O-])cc5[N+](=O)[O-])c(O)c4c3C2=O)NC(=O)C(C)=C/C=C/C(C)C(O)C(C)C(O)C(C)C(OC(C)=O)C1C (stereo unspecified) | > 200 | 7.08 |  |
| CCOC(=O)c1cnc(SCc2ccc(Cl)c(Cl)c2)nc1N1CC1C (stereo unspecified) | > 200 | 6.46 |  |
| C#C[C@]1(O)CCC2C3CCc4cc(Oc5nc(F)nc(-n6c(C)nc7cc8ccccc8cc76)n5)ccc4C3CCC21C (stereo partly specified) | > 200 | 28.2 |  |
| CCOC(=O)C(NC(=O)CC(C)C)(Nc1ccc(C(F)(F)F)cc1)C(F)(F)F (stereo unspecified) | > 200 | 56.2 |  |
| O=C1c2ccccc2C(=O)c2c1oc1cc(O)c(Cl)cc21 | > 16.6 | > 16.6 |  |
| O=C(O)c1sc(=S)sc1C(=O)O |  |  | inactive |
| CC(=O)N(C(=O)CC(=O)N1N=C(C)C(N=Nc2cccc([N+](=O)[O-])c2)C1=O)c1ccc(Cl)cc1 (stereo unspecified) | > 170 | 72.4 |  |
| Nc1ccccc1SC(CC(=O)c1ccccc1)c1ccc2c(c1)OCO2 (stereo unspecified) | > 200 | 10.7 |  |
| OC(c1cc(C(O)(C(F)(F)F)C(F)(F)F)ncn1)(C(F)(F)F)C(F)(F)F | > 200 | 166 |  |
| C=C1C(O)C2(O)OCC34C(CC5C(C)=CC(=O)C(O)C5(C)C23)OC(=O)C(OC(=O)C/C=C(\C)CCCCC)C14 (stereo unspecified) | > 47.9 | 0.0151 |  |
| CC(=O)OCC(=O)[C@@]1(O)CC[C@H]2[C@@H]3C[C@H](C)C4=CC(=O)C=C[C@]4(C)[C@@]3(Br)[C@@H](O)C[C@@]21C |  |  | inactive |
| Cc1cccc(/C=N/NC(=S)N(C)CCc2ccccn2)n1 | > 2 | 0.0331 |  |
| CC(=O)Nc1ccc(C(=O)N2N=C(C)/C(=C/c3cccc([N+](=O)[O-])c3)C2=O)cc1 | > 47.9 | > 47.9 |  |
| CC(C)CCCC(C)[C@H]1CCC2C3C[C@@H](CCC=C(c4cc(Cl)c(O)c(C(=O)O)c4)c4cc(Cl)c(O)c(C(=O)O)c4)[C@H]4CCCC[C@]4(C)C3CC[C@@]21C (stereo partly specified) | 20 | > 100 |  |
| COC(=O)[C@]12CSC[C@H]1C[C@H](c1ccc(N(C)C)cc1)N2 | > 200 | > 200 |  |
| CC(C)CC(NC(=O)C(Cc1ccc(O)cc1)NC(=O)C(C)N)C(=O)NCC(=O)NC(CCCCN)C(=O)NC(CCCCN)C(=O)NC(C(=O)NC(C)C(=O)NC(C(=O)NC(CC(=O)O)C(=O)O)C(C)O)C(C)C (stereo unspecified) (H-AYLGKKVATD-OH; configuration not given here) |  |  | inactive |
| CCCCCCCCCC(=O)CC(=O)c1c(O)cccc1O | > 23.4 | > 23.4 |  |
| CCOC(=O)N1CCc2cc(OC)c(OC)c3c2C1CC3=O (stereo unspecified) |  |  | inactive |
| OC(CCN1CCOCC1)(c1cccc(Cl)c1)C1CCCCC1 (stereo unspecified) | > 200 | 41.7 |  |
| CCOP(=O)(C/C=C/CN(C(=O)OC(C)(C)C)C(=O)OC(C)(C)C)OCC |  |  | inactive |
| COc1cc2c(cc1OC)-c1cc3ccccc3c[n+]1CC2 | > 200 | > 200 |  |
| COc1ccc(C(O)C/[N+]([O-])=C/c2ncc([N+](=O)[O-])n2C)cc1 (stereo unspecified) |  |  | inactive |

| Structure (SMILES) | EC50 [µM] | IC50 [µM] | outcome |
| --- | --- | --- | --- |
| CCCCCCCCCCCCCCCc1ncc(C)[nH]1 | > 24.5 | > 24.5 |  |
| CNC(=S)N/N=C(\C)c1cc(OC)c(OC)cc1O | > 200 | > 200 |  |
| COc1ccc(CC2C(=O)NC(C)C(=O)N(C)C3Cc4ccc(cc4)Oc4cc(ccc4O)CC(C(=O)NC(C)C(=O)NC(C)C(=O)N2C)N(C)C3=O)cc1 (stereo unspecified) | > 0.2 | 0.0631 |  |
| CCOC(=O)c1nc2ccc(Cl)cc2c2c1Cc1ccccc1-2 | > 20 | > 20 |  |
| O=S1OC(c2ccccc2)(c2ccccc2)C(c2ccccc2)(c2ccccc2)O1 | > 16.2 | > 16.2 |  |
| Cc1nc2ccccc2c(=O)n1NC(=O)c1ccccc1O | > 200 | 38 |  |
| CC(=O)OI1NC(=O)c2ccccc21 | 36.3 | 126 |  |
| CC(=O)Nc1ccc(-c2nnc(SCC(=O)Nc3ccc([N+](=O)[O-])cc3)o2)cc1 | > 45.7 | 7.94 |  |
| CC(=O)NNc1nc(C)c(C(=O)NNC(=O)C(=O)Nc2cccc(C(C)=O)c2)s1 | > 44.7 | > 44.7 |  |
| Cc1c(C(=O)Nc2ccc(Cl)c(C(F)(F)F)c2)oc2cc(O)ccc2/c1=N\NC(N)=S | > 525 | 112 |  |
| O=C1c2ccccc2C(=O)N1OCCCCON1C(=O)c2ccccc2C1=O | > 200 | > 200 |  |
| COc1ccc(NC(=O)CC(=O)N/N=C/c2ccc(N(CCC#N)S(C)(=O)=O)cc2)cc1 | > 148 | > 148 |  |
| O=C1C(c2[nH]c3cc4c(cc3c2O)OCO4)=Nc2cc3c(cc21)OCO3 | > 100 | 14.8 |  |
| COc1ccc(C2Oc3c(cccc3-c3c(-c4ccc(O)cc4)oc4cc(O)cc(O)c4c3=O)C(=O)C2O)cc1O (stereo unspecified) | > 200 | 170 |  |
| COC(=O)OCC1C=CC(n2cnc3c(Cl)nc(N)nc32)CC1 (stereo unspecified) | > 200 | 31.6 |  |
| N#CC1=C(N2CCOCC2)CCC1 | > 200 | > 200 |  |
| COC(=O)c1ccc2c(c1)CC1(C2)Cc2ccc3c(c2C1)CCC3 (stereo unspecified) | > 200 | > 200 |  |
| N#Cc1c(N2CCC(O)C2)c2ccccc2n2c1nc1ccccc12 (stereo unspecified) | > 50.1 | > 50.1 |  |
| CN/N=C(/Cc1occc(=O)c1O)C(=O)Nc1ccccc1C | > 794 | 724 |  |
| CCCCCCCCCCCC(=O)OCC(O)CO (stereo unspecified) | > 100 | 51.3 |  |
| CCCCCCCCCCCCCCCCCCOCC(O)CO (stereo unspecified) | > 3.02 | > 3.02 |  |
| C/C(Cl)=N/OC(=O)Nc1ccc(F)c([N+](=O)[O-])c1 | > 200 | 3.24 |  |

| Structure (SMILES) | EC50 [µM] | IC50 [µM] | outcome |
| --- | --- | --- | --- |
| O=C1CCC2(c3ccccc3)Nc3ncccc3N12 (stereo unspecified) | > 200 | > 200 |  |
| COc1ccc(C2=C/C(=C/c3ccc(N(CCC#N)CCC#N)cc3)C(=O)O2)cc1 | > 13.2 | > 13.2 |  |
| O=C/C(=C(/Br)I)c1ccccc1 | > 200 | 1.26 |  |
| COc1cc(C=Nc2cc(Cl)c(N=O)c(Cl)c2)ccc1N(CCCCl)CCCCl | 5.25 | 22.4 |  |
| Clc1cc2cc3c(Br)coc3nc2cc1Cl | > 16.2 | > 16.2 |  |
| CSC1OC(C)(C)OC1=O (stereo unspecified) | > 200 | > 200 |  |
| O=S(=O)(O)c1ccc(N/N=C/c2ccccc2)cc1 | > 832 | 794 |  |
| COC(=O)c1c(CC(Cc2ccc3c(c2)CCCC3)C(=O)O)ccc2c1CCCC2 (stereo unspecified) | > 200 | 58.9 |  |
| N#CC12C(=O)NC(=O)C1(C#N)C1C=CC2CC1 (stereo unspecified) | > 200 | > 200 |  |
| CC(C)(C)S(=O)OC12CC3CC(CC(C3)C1)C2 (stereo unspecified) | > 708 | 151 |  |
| COC(=O)c1c(C(=O)OC)c2cc(C(=O)c3ccccc3)ccn2c1Cl | > 26.9 | > 26.9 |  |
| O=C1Nc2cc([N+](=O)[O-])ccc2C(=O)N2CCC[C@@H]12 | > 200 | > 200 |  |
| CC(=O)Nc1ccccc1/C(C#N)=C/c1ccccc1 | > 200 | > 200 |  |
| Cc1cc(=O)[nH]c(NN2C(Cl)C(=O)C2c2cccc(O)c2)n1 (stereo unspecified) | > 295 | 1.86 |  |
| Cc1cn(COCCN2C(=O)c3ccccc3C2=O)c(=O)[nH]c1=O | > 200 | > 200 |  |
| Cc1c(C2Cc3ccccc3N2C(=O)/C=C\C(=O)O)c2ccccc2n1C (stereo unspecified) | > 692 | 14.5 |  |
| O=C(O)C12C3C4C1C1C2C3C41I (stereo unspecified) | > 479 | > 479 |  |
| FC(F)(F)c1ccc2c(c1)N(CCCN1CCNCC1)c1ccccc1S2 | > 34.7 | 21.4 |  |
| O=C1NC23C4C5C6C4C2(N1)C6C53 (stereo unspecified) | > 1550 | 891 |  |
